Assay results published in ChEMBL document CHEMBL1156254, “4-Pregnen-21-ol-3,20-dione-21-(4-bromobenzenesulfonate) (NSC 88915) and related novel steroid derivatives as tyrosyl-DNA phosphodiesterase (Tdp1) inhibitors” (J Med Chem, 2009).
Activity calls are given as the source filed them. No cut-off for these calls is given here.

Key:
[1] = biological target: DNA repair nuclease/redox regulator APEX1 (Homo sapiens) (UniProt P27695); assay: Inhibition of human APE1 up to 100 uM
[2] = biological target: Tyrosyl-DNA phosphodiesterase 1 (Homo sapiens) (UniProt Q9NUW8); assay: Ratio of IC50 of test compound to IC50 of NSC88915 for human Tdp1 assessed as blockade of enzyme-mediated hydrolysis of phosphodiester linkage between tyrosine and 3^-end of N14Y DNA substrate by SDS-PAGE electrophoresis
Tyrosyl-DNA phosphodiesterase 1 (Homo sapiens), sequence (Q9NUW8 whole entry): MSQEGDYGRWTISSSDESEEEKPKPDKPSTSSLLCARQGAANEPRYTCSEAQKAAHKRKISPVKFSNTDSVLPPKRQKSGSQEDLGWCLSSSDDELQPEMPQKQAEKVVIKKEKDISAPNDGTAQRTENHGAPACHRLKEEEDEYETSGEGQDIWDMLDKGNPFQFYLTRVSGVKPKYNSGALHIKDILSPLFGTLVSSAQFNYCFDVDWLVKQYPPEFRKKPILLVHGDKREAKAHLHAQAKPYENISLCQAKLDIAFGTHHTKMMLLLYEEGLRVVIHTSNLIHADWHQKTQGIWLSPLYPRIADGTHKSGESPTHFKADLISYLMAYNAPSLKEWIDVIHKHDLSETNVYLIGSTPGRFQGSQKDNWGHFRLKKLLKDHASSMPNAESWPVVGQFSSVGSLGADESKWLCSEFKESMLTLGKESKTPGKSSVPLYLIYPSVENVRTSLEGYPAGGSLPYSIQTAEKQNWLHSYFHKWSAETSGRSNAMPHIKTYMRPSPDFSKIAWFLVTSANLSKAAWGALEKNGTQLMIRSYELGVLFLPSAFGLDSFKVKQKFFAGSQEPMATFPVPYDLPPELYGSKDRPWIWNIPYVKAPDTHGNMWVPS

DNA repair nuclease/redox regulator APEX1 (Homo sapiens), sequence (P27695 whole entry): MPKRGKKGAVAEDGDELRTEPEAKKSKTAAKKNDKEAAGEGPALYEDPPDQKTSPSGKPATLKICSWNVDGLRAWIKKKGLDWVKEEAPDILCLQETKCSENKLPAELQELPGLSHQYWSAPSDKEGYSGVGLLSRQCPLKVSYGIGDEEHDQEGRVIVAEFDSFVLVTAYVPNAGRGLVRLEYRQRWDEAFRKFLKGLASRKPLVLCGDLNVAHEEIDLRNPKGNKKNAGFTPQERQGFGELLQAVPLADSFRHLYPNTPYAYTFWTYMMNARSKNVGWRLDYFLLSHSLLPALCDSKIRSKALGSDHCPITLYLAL

Structure (SMILES) | inhibition [1] | Ratio IC50 [2]
C[C@]12CC[C@H]3[C@@H](CCC4=CC(=O)CC[C@@]43C)[C@@H]1CC[C@@H]2C(=O)COS(=O)(=O)c1ccc(Br)cc1 | inactive | 
Cc1ccc(S(=O)(=O)OCC(=O)[C@H]2CC[C@H]3[C@@H]4CCC5=CC(=O)CC[C@]5(C)[C@H]4CC[C@]23C)cc1 |  | < 3
C[C@]12CC[C@H]3[C@@H](CCC4=CC(=O)CC[C@@]43C)[C@@H]1CC[C@@H]2C(=O)COS(=O)(=O)c1ccc(F)cc1 |  | < 3
C[C@]12CC[C@H]3[C@@H](CCC4=CC(=O)CC[C@@]43C)[C@@H]1CC[C@@H]2C(=O)COS(=O)(=O)c1ccc([N+](=O)[O-])cc1 |  | < 3
C[C@]12CC[C@H]3[C@@H](CCC4=CC(=O)CC[C@@]43C)[C@@H]1CC[C@@H]2C(=O)COS(=O)(=O)c1ccccc1 |  | < 3
C[C@]12CC[C@H]3[C@@H](CCC4=CC(=O)CC[C@@]43C)[C@@H]1CC[C@@H]2C(=O)COS(=O)(=O)c1ccc(Cl)cc1 |  | < 3
